4 molecules from ChEMBL document CHEMBL1201862, “PubChem BioAssay data set” (2004) can be followed below.

SMILES strings stand for the structures.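 Assay format: 96-well plates, 48-hour exposure. GI50 is the concentration that inhibits growth by half.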 The source made the active and inactive calls. No stated cut-off is given here; in the data, active = GI50 up to about 1.1 µM and inactive = higher.

Among the test systems are MCF7; SK-MEL-5; SK-MEL-28; MDA-MB-435; SNB-19; CAKI-1; SF-268; UACC-62; NCI-H23; DU-145; SF-539; HCC 2998; A498; A549; SW-620; M14; HOP-62; RPMI-8226; HL-60; RXF 393.
Holding throughout (experiment): inhibition of tumour cell growth, NCI panel, 48 h

On to `O=c1[nH]nc(Cc2ccc(Cl)cc2)n1/N=C/c1c[nH]c2ccccc12`, for which the GI50 in the assay with MCF7, in the assay with SK-MEL-5, in the assay with SK-MEL-28, in the assay on MDA-MB-435, with SNB-19 and in the assay with CAKI-1 was > 100 µM (inactive) throughout. In addition, the GI50 with SF-268, in the assay with UACC-62, with NCI-H23, in the assay with DU-145, in the assay on SF-539 and in the assay on HCC 2998 was > 100 µM (inactive) throughout. Besides, the GI50 in the assay on A498 is > 100 µM (inactive); in the assay on A549 it was > 100 µM (inactive); with SW-620 it was > 100 µM (inactive); in the assay with M14, > 100 µM (inactive); in the assay on HOP-62, > 100 µM (inactive); in the assay on RPMI-8226 it was 26.3 µM (inactive). Moreover, the GI50 in the assay on HL-60 was > 100 µM (inactive).
Turning to `CN1CCN(Cc2ccc(C(=S)Nc3ccccc3)s2)CC1`, the GI50 was 41.9 µM (inactive) with MCF7; 17.6 µM (inactive) in the assay on SK-MEL-5; 15.5 µM (inactive) in the assay with SK-MEL-28; 31.9 µM (inactive) with MDA-MB-435; > 100 µM (inactive) with SNB-19; > 100 µM (inactive) in the assay on CAKI-1. Besides, the GI50 in the assay with SF-268 is > 100 µM (inactive); in the assay on UACC-62 it was 20.2 µM (inactive); in the assay with NCI-H23, 18.5 µM (inactive); in the assay with DU-145 it was > 100 µM (inactive); in the assay on SF-539, 82.4 µM (inactive); in the assay with HCC 2998, 33.1 µM (inactive). Besides, the GI50 in the assay on A498 is 33.7 µM (inactive); in the assay on A549, 55 µM (inactive); in the assay on SW-620, 26.7 µM (inactive); in the assay on M14, 16.7 µM (inactive); in the assay with HOP-62, 93.8 µM (inactive); with RPMI-8226, 28.6 µM (inactive). In the assay with HL-60, the GI50 was 19.9 µM (inactive).
Take `CSc1nc(NC(C)C)c2c(n1)Sc1nc3ccccc3n1C2O` (stereo unspecified): the GI50 was 0.0465 µM (active) in the assay on MCF7; 3.34 µM (inactive) with SK-MEL-28; 1.74 µM (inactive) in the assay on MDA-MB-435; 3.86 µM (inactive) with RXF 393; 82.4 µM (inactive) with CAKI-1; 4.43 µM (inactive) in the assay on SF-268. In addition, the GI50 with NCI-H23 is 4.79 µM (inactive); in the assay with DU-145, 3.18 µM (inactive); with HCC 2998, 5.55 µM (inactive); in the assay with A549, 3.41 µM (inactive); in the assay with SW-620, 2.27 µM (inactive); in the assay on M14, 5.96 µM (inactive). Besides, the GI50 with HOP-62 is 6.37 µM (inactive); in the assay with RPMI-8226, 0.0432 µM (active).
Consider `CN(Cc1cnc2nc(N)nc(N)c2n1)c1ccc(C(=O)NC(CCC(=O)NC(CC(P(=O)(O)O)P(=O)(O)O)C(=O)O)C(=O)O)cc1` (stereo unspecified), for which the GI50 with MCF7, in the assay with SK-MEL-5, with SK-MEL-28, in the assay on MDA-MB-435, with SNB-19 and in the assay on RXF 393 was > 100 µM (inactive) in each case. The GI50 in the assay with SF-268, with UACC-62, with NCI-H23, in the assay on DU-145, with A549 and in the assay with SW-620 was > 100 µM (inactive) throughout. Also, the GI50 in the assay with M14 and in the assay on HOP-62 was > 100 µM (inactive) throughout.
